# According to US20030144212A1, “USE OF SERINE PROTEASE INHIBITORS TO INHIBIT PATHOPHYSIOLOGY AND NEUROPATHOLOGY IN A HOST” (priority 2000, published 2003):
# What was measured:
# [1] = tested on: seizure-proneness (after-discharge duration); assay: Kindling by repeated electrical stimulation of hippocampus, after-discharge duration; assay type: in vivo, rat; details: 50 mgs/kg injected once prior to first stimulation; tested 10 days later; control rats ~400%
# Protocol: Rats were divided into two groups: Group I rats were injected with 50 mgs/kg AEBSF and Group II (control) rats were injected with saline. The rats of both groups were then stimulated by direct electrical impulses to the dentate gyrus region of the hippocampus (40 times/5 mins apart)(a paradigm known to promote “kindling”, which can be thought of as an increase in seizure-proneness). The after-discharge duration (AD-duration) was then measured in each group. After a 10 day waiting period, the rats were again stimulated (5 times/20 mins apart)(no drugs were administered). The AD-duration was again measured.
# [2] = tested on: CAM75 (75 kDa cell adhesion molecule fragment) generation by serine protease; assay: Incubation of hippocampal homogenates, CAM75 fragment by immunoblot; assay type: biochemical, rat; details: membranes incubated for one hour with 500 μM inhibitor; controls 45±8%; n=3-5, p=0.03
# Protocol: Hippocampi were rapidly extracted from adult male Sprague-Dawley rats and submerged in ice-cold buffer (10 mM Tris-base, 100 mM NaCl; pH 7.4) homogenized on ice for 1 min in 5 mls of the same buffer and then centrifuged for 3 min. at 1000 g (4° C.). The pellet was discarded and the resulting supernatant was immediately incubated at 37° C. with or without EDTA, EGTA, or AEBSF. After incubation, samples were ultracentrifuged (as above) and processed for immunoblotting. Quantification of immunoblots was performed by densitometry with normalization of the immunoreactivity levels at 0 minutes to 100 percent (n=4 or 5; mean±S.E.M. for all time points).
# Similar results are obtained with brain homogenates, where a 65 kDa fragment and CAM75 are produced upon incubation in the presence of EDTA or EGTA (see FIG. 1). As noted, fragments similar in size to CAM75 are generated by cleavage of any of several NCAM relatives by serine-type proteases. That CAM75 also arises from an enzyme of this type was confirmed with the selective inhibitor 4-(2-Aminoethyl)-benzenesulfonyl fluoride (AEBSF); a 12±8% increase in the fragment occurred in membranes incubated for one hour with 500 μM of the inhibitor while a 45±8% increase was obtained in controls (n=3-5; p=0.03).
# [3] = tested on: LTP in hippocampal slices (CA1 field EPSPs); assay: Long-term potentiation in hippocampal slices (theta burst stimulation, field EPSPs); assay type: cell-based, rat
# Protocol: Brains from male Sprague-Dawley rats (190-225 g) were rapidly removed and placed into ice cold aCSF. Hippocampi were then cut transversely into 400-μm slices and transferred to a recording chamber perfused with aCSF (35° C.), where they were exposed to a humidified gas mixture of 95% oxygen and 5% carbon dioxide. After an hour recovery period, field recordings were made with a glass recording electrode containing 2 M NaCl positioned in the stratum radiatum of CAlb. NAC (Eclectex Enterprises; Irvine Cailf.) was used to record field EPSPs elicited by delivering single stimulation pulses (0.1 ms, 1-15 μA) to one of two bipolar electrodes positioned in Schaffer-commissural projections in CAla and CAlc. Each projection was stimulated every 20 sec with 10 sec interval between each electrode. After establishing a stable baseline (10-20 min), LTP was induced using a theta burst stimulation (TBS) paradigm [J. Larson et al., Brain Res. 368, 347-350 (1986)] in one pathway. After 30 minutes the perfusion media was switched to one containing 250 μM AEBSF. Forty-five minutes later TBS was applied to the non-potentiated pathway. The AEBSF/aCSF mixture was perfused for an additional 10 minutes, after which regular aCSF was added. In another set of slices TBS stimulation was applied during aCSF perfusion, and five minutes after LTP induction 250 μM AEBSF was infused for the remainder of the experiment. Potentiation for all groups was tabulated as the percent increase above initial baseline slopes.
# The magnitude of this effect varied considerably across slices but within slice differences between potentiation elicited before (control) vs. after (experimental) infusion of the drug could not be detected. However, the development of LTP in the minutes following induction was clearly different as is evident in FIG. 5A. […] Mean percent potentiation at this time point was 103±5% for experimental and 134±3% for control pathways (n=6, p=0.005).
# [4] = tested on: pre-existing seizure proneness (after-discharge duration); assay: Restimulation of previously kindled rats (pre-existing seizure proneness), after-discharge duration; assay type: in vivo, rat; details: AEBSF (50 mgs/ml) injection prior to stimulations
# Description: The control group rats from III, above, were restimulated, with four of the rats of this group receiving a saline injection prior to stimulation and the remaining four rats receiving AEBSF (50 mgs/ml) injection prior to stimulations. […] The AD duration average of the control group was 207±103% of their original average, while the AD duration of the AEBSF injected rats was 26±77% of their original average.
# [5] = target: T1, tissue plasminogen activator (tPA) (Homo sapiens, UniProt P00750); assay: Incubation of synthetic substrates with tPA; assay type: biochemical
# T1 construct: purchased Sigma
# T1 sequence (P00750 311-562 limits assumed, species assumed): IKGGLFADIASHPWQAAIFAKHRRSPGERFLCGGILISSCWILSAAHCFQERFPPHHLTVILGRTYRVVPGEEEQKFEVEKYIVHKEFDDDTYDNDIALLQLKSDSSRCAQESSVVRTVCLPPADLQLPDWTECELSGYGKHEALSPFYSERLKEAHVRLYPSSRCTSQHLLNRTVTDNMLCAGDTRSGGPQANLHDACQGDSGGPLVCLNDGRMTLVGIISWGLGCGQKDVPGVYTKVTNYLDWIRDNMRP
# T1 sequence (P00750 36-310 partner limits assumed, species assumed): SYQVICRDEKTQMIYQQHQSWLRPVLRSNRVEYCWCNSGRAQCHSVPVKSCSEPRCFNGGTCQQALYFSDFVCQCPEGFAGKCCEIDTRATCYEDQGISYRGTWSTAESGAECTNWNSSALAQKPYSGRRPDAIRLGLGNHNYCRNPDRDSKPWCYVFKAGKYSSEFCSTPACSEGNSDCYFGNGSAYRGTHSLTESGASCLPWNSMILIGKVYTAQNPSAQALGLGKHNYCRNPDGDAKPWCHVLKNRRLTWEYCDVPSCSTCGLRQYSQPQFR
# Protocol: 1.5 μg/ml of tissue plasminogen activator (tPA, two chain, Sigma) was incubated at 23 ° C. with 40 μM ASLA- and A-AMC substrates (with or without the inhibitor AEBSF) in a final volume of 1.3 mls aCSF. After one hour of incubation the samples were put in the fluorometer and quantification of proteolytic activity normalized the readings from the A-AMC substrate to 100 (arbitrary units).
# [6] = tested on: endogenous protease(s) found in hippocampal ultrasupernatants; assay: Cleavage of fluorescent AMC substrates by hippocampal ultrasupernatants; assay type: biochemical, rat; details: 100 μM substrate
# Protocol: Hippocampi were rapidly extracted from adult male Sprague-Dawley rats and submerged in ice-cold artificial cerebrospinal fluid (aCSF) which consisted of (in mM): 124 NaCl, 3 KCl, 1.25 KH2PO4, 2.5 MgSO4, 3.4 CaCl2, 26 NaHCO3 and 10 glucose (pH 7.4), homogenized on ice for 1 min in 3 mls of the same buffer and then centrifuged for 5 min. at 1000 g (3° C.). The pellet was discarded and the resulting supernatant was ultracentrifuged at 200,000 g for 20 min. at 3° C. in a TLS-55 rotor (Beckman Instruments). The resulting ultrasupematant fraction was devoid of membrane-bound proteins and therefore represents a soluble protein fraction. This fraction was diluted to 50 μgs/ml in aCSF and incubated at room temperature with 100 μM of arginine linked to a fluorescent amido methyl-coumarin (AMC) substrate (Sigma Chemical Co), or to […] (Enzyme Systems Products; Livermore Cailf.) in the presence of differing concentrations of the serine protease inhibitor AEBSF (4-(2-Aminoethyl)benzenesulfonyl fluoride) (Sigma Chemical Co). Fluorescence was measured in a fluorometer (Sequoia-Turner Corp.) at 430 nm with stimulation at 360 nm. Quantification of proteolytic inhibition was performed by normalization of fluorescence in control tubes (i.e. those without added AEBSF) to 0 percent.
# The serine protease substrate arginine-AMC (A-AMC) and a substrate made up of the CAM serine protease target sequence (arginine-serine-lysine-arginine) (ASLA-AMC) were both cleaved when incubated with soluble protein fractions (i.e. ultrasupernatants) from the hippocampus. This assay was then used to identify drugs and dosages that prevent extracellular CAM cleavage by endogenous proteases. The serine protease inhibitor AEBSF (4-(2-Aminoethyl)-benzenesulfonyl fluoride) inhibited proteolysis of the CAM sequence (ASLA-AMC) and did so to a much greater degree than it blocked the proteolysis of A-AMC. At 250 and 1000 uM A-AMC cleavage was blocked by 15 and 33 percent, respectively, while ASLA-AMC proteolysis was blocked by 44 and 70 percent. FIG. 3 (p≦0.0001).
# NMDA receptors = assay: NMDA receptor stimulation of organotypic hippocampal cultures, CAM75 immunoblot; assay type: cell-based, rat
# Description: The culture medium (Bahr, et al. “Stable maintenance of glutamate receptors and other synaptic components in long-term hippocampal slices,” Hippocampus 5, 425-439 (1995))(CM) was changed every other day. Slices were maintained in culture for 2-3 weeks and then subjected to a brief NMDA receptor stimulation paradigm (Thibault et al., “Long-lasting physiological effects of bath applied N-methyl-D-aspartate,” Brain Res. 476, 170-173 (1989) and Malenka, “Postsynaptic factors control the duration of synaptic enhancement in area CA 1 of the hippocampus,” Neuron 6, 53-60 (1991)). To activate NMDA receptors the slices were treated with 400 μM NMDA, 2 ; mM CaCl2 (4 mM total) and 1 mM glycine. Control slices were also subjected to this cocktail but were first pretreated for 10 minutes with either 100 μM AP5 (an NMDA antagonist), or with kynurenic acid (2 mM) and MK-801 (100 μM), in CM. After 30 seconds of incubation with the NMDA cocktail, the solutions were removed and CM plus 2 mM AP5 was added to all slices. Tissue was harvested and processed for immunoblotting as described (See Bahr et al., supra). […] Protein concentrations for the non-soluble pellets (i.e. all tissue left after the supernatant was extracted) were determined with a BSA standard curve. […] Quantification of immunobands was determined without knowledge of sample type by densitometry.
# [7] = tested on: CAM75 and Ng-CAM fragment in hippocampus; assay: In vivo detection of NMDA receptor mediated CAM cleavage after kainate seizures; set-up: species or system rat
# Protocol: Adult male rats were injected systemically with either: 10 mg/kg kainate (pH 7.4), 10 mg/kg kainate and 60 mg/kg ketamine (plus a second injection of 30 mg/kg ketamine one hour later), or saline. Behavioral responses were monitored (all animals in both sets injected with kainate reached seizure stages 4 or 5) and after two hours rats were anaesthetized, their hippocampi rapidly extracted and submerged in ice-cold buffer (10 mM Tris-base, 100 mM NaCl, 2 mM EDTA, and 2 mM EGTA; pH 7.4), homogenized on ice for 1 min in 5 mls of the same buffer, and then centrifuged for 3 min. at 1000 g (4° C.). The pellet was discarded and fractions of the resulting supernatants were immediately ultracentrifuged. Protein normalization and immunoblotting techniques were completed as described above. Quantification of CAM75 and the Ng-CAM fragment involved normalization of the immunoreactivity levels observed in saline injected rats to 100 percent (n=7-11; mean±S.E.M. for all groups).
# Evidence for seizure induced extracellular cleavage at the consensus serine protease site was also obtained for a second adhesion molecule. Specifically, concentrations of an 80 kDa polypeptide detected by antibodies against Ng-CAM were increased by 603±140% (n=4, p=0.023) in ultrasupematant fractions from kainate injected rats.
compound,measurement,setting,value
"NCCc1ccc(S(=O)(=O)F)cc1 [AEBSF, 4-(2-Aminoethyl)-benzenesulfonyl fluoride]",increase in AD-duration during the second testing period,[1],no increase in AD-duration
same,increase in the CAM75 fragment,[2],12±8%
same,Mean percent potentiation,"[3]; 250 μM for 45 min before TBS, about one hour post-induction, control pathways 134±3%, n=6, p=0.005",103±5%
same,effect on already established LTP (potentiation over the subsequent hour),[3]; 250 μM infused five or thirty minutes after induction,no effects on potentiation
same,"effect on slope, amplitude, or waveform of monosynaptic field EPSPs","[3]; 250 μM infused for forty-five minutes, before TBS",no significant effect
same,rats with no after discharges (no seizure-like activity),[4]; four rats,Two out of the four
same,AD duration as percent of original average,"[4]; tested 10 days after, saline group 207±103%",26±77%
same,proteolytic activity of tPA blocked,[5],potently blocked
same,A-AMC cleavage blocked,[6]; 250 uM AEBSF,15%
same,ASLA-AMC proteolysis blocked,[6]; 250 uM AEBSF,44%
same,A-AMC cleavage blocked,[6]; 1000 uM AEBSF,33%
same,ASLA-AMC proteolysis blocked,[6]; 1000 uM AEBSF,70%
CN[C@H](CC(=O)O)C(=O)O [NMDA],concentration of CAM75 in soluble fractions versus control tissue,"NMDA receptors; 30 seconds after a 30 second infusion of NMDA, n=12, p=0.0003",approximately twice
same,amount of CAM75 greater than in slices exposed to NMDA and an antagonistic drug,"NMDA receptors; homogenates after 30 second infusion of NMDA, mean±sd, n=9, p<0.001",77±41%
C=C(C)[C@H]1CN[C@H](C(=O)O)[C@H]1CC(=O)O [kainic acid],CAM75 increase in the hippocampus,"[7]; single injection 10 mg/kg, about 45 minutes of periodic seizures, saline = 100 percent, n=11, p=0.0002",598±85%
same,increase of 80 kDa polypeptide detected by antibodies against Ng-CAM,"[7]; ultrasupernatant fractions from kainate injected rats, n=4, p=0.023",603±140%
CNC1(c2ccccc2Cl)CCCCC1=O (centres unmarked) [ketamine],effect on kainate-induced CAM75 increase,"[7]; 60 mg/kg plus 30 mg/kg one hour later with 10 mg/kg kainate, n=7, p=0.03",substantially reduced this effect
